We go through twelve molecules from patent US8969303B2, “Tocotrienol esters” (First Tech International Limited, priority 2010, dated 2015).

Series [1] has as its system +SA mammary epithelial cells. Description: Antiproliferative MTT assay on +SA mammary epithelial cells. The series is classed as cell-based, mouse. The following applies: for pIC50: malignant mice +SA mammary cells, 24 hour treatment, MTT; for antiproliferative activity: +SA mammary cells, in words. The source says:
+SA mammary epithelial cell lines were serially passaged at subconfluent cell density. The +SA cell line was derived from an adenocarcinoma that developed spontaneously in a BALB/c female mouse. That cell line is discussed in more detail in Anderson, L. W., Danielson, K. G., Hosick, H. L. Eur. J. Cancer Clin. Oncol. 1981, 17, 1001-1008, Danielson, K G., Anderson, L. W., Hosick, H. L. Cancer Res. 1980, 40, 1812-1819.31, and Anderson, L. W., Danielson, K. G., Hosick, H. L. In Vitro. 1979, 15, 841-843. Cell culture conditions were similar to those described in detail in Shah, S. J., Gapor, A., Sylvester, P. W. Nutr. Cancer. 2003, 45, 236-246, Shah, S. J., Sylvester, P. W. Biochem. Cell. Biol. 2005, 83, 86-95, Wali, V. B., Sylvester, P. W. Lipids, 2007, 42, 1113-1123, and Wali, V. B., Bachawal, S. V., Sylvester, P. W. Exp. Biol. Med. (Maywood) 2009, 234, 639-650. Briefly, +SA cells were maintained in serum-free defined medium consisting of Dulbecco's modified Eagle's medium (DMEM)/F12 containing 5 mg/ml bovine serum albumin (BSA), […], 100 U/ml soybean trypsin inhibitor, 100 U/ml penicillin, 0.1 mg/ml streptomycin, […], and 10 ng/ml epidermal growth factor. For subculturing, cells were rinsed twice with sterile Ca^2+ and Mg^2+-free phosphate buffered saline (PBS) and incubated in 0.05% trypsin containing 0.025% EDTA in PBS for 5 minutes at 37° C. The released cells were centrifuged, resuspended in serum-free defined media and counted using a hemocytometer. A stock solution of the Compounds was prepared in DMSO. Once dissolved, this solution was added to a small volume of sterile 10% BSA in water and incubated overnight at 37° C. This solution conjugated to BSA was used to prepare various concentrations (0-40 μM) of tocotrienol analogs. DMSO was added to all treatment media such that the final DMSO concentration was the same in all treatment groups within a given experiment and was always less than 0.1%. For cytotoxicity studies, cells were seeded at a density of 5×10^4 cells/well (6 wells/group) in 24-well culture plates and allowed to grow in serum-free control defined media. After a 3 day incubation period (approximately 70% confluency), cells were divided equally into various treatment groups and exposed to their respective treatments for a 24 hour incubation period. Following the 24 hour treatment period, cell viability was measured using the MTT assay. All materials were purchased from Sigma Chemical Company (St. Louis, Mo.) unless otherwise stated.
+SA mammary epithelial cell viable number was determined by the 3-(4,5-dimethylthiazol-2-yl)-2,5-diphenyl tetrazolium bromide (MTT) colorimetric assay. On the day of assay, treatment medium was replaced with fresh growth medium containing 0.42 mg/ml MTT, and the cells in 24-well plates were incubated at 37° C. for 4 hours. Afterward, the medium was removed, and the MTT crystals were dissolved in isopropyl alcohol (1 ml/well). The optical density of each sample was read at 570 nm on a microplate reader (SpectraCount, Packard BioScience Company), against a blank prepared from cell-free cultures. The number of cells/well was calculated against a standard curve prepared by plating various concentrations of cells, as determined by hemocytometer, at the start of each experiment.
Differences among the various treatment groups in +SA cell cytotoxic studies were determined by analysis of variance (ANOVA) followed by Dunnett's t-test. The difference of P<0.05 was considered to be statistically significant as compared with vehicle-treated controls. Linear regression analysis of treatment effects on viable cell number in growth and cytotoxicity studies was used to determine the 50% growth inhibition concentration (IC50) for individual treatments.

For a further series, the system named is MDA-MB-231 cells. Description: Wound healing anti-migratory assay. The following applies: Homo sapiens, single dose of 5 μM, 24 hours, read-out: inhibition of the migrated MDA-MB231 cells. The series is classed as cell-based. The procedure: The highly metastatic human breast cancer MDA-MB-231 cells were cultured in RPMI 1640 medium containing 10 mM HEPES, 4 mM L-glutamine, 10% fetal bovine serum, penicillin (100 IU mL-1), and streptomycin (50 μg mL-1), and grown in a 5% CO2 atmosphere at 37° C. Cells were plated onto sterile 24-well culture plates and allowed to recover for a confluent cell monolayer formed in each well (>95% confluence). Wounds were then inflicted to each cell monolayer using a sterile 200 μL pipette tip. Media were removed, cells monolayers were washed twice with PBS, and then fresh media containing test compounds were added to each well. Test compounds were prepared in DMSO at 5 μM concentration and added to the plates using DMSO as negative control. Tests were preformed in triplicate. The incubation was carried out for 24 hours under serum-starved conditions, after which the media was removed and the cells were fixed and stained using a Romanowski stain sold under the Diff Quick name (Dade Behring Diagnostics, Aguada, Puerto Rico). The number of cells which migrated on the scratched wound were counted under the microscope in three or more randomly selected fields (magnification: 400×). Final results are expressed as mean+/−SEM per 400× field.

A short description of series [2]: Stability in phosphate buffer. Format: physicochemical. As to conditions: phosphate buffer pH 7.4, 37° C. The procedure: The stability of each of α-tocotrienol and Compound 6 was studied at 37° C. in phosphate buffer (pH 7.4). In amber vials, 500 μg/mL of each compound were dissolved in the buffer and the solution was incubated at 37° C. At interval times (0, 0.5, 1, 2, 4, 6, and 24 h), 50 μL it samples were collected and equal volumes of methanol were added to each sample followed by HPLC analysis.
A Shimadzu HPLC system (Columbia, Md.) was used for quantification of α-tocotrienol and Compound 6. This system is composed of SIL 20-AHT autosampler, SPD-20A UV/VIS detector, and LC-20AB pump connected to a Dgu-20A3 degasser. Data acquisition was achieved by LC Solution software version 1.22 SP1 Shimadzu. The following chromatographic conditions were used: […] (250×4.6 mm id; Phenomenex, Torrance, Calif.), flow rate was adjusted to 1.0 mL/min, and λ was set at 295 nm. For α-tocotrienol solubility and stability studies, an isocratic elution with MeOH-EtOH—CH3CN (40:30:30, v/v/v) as mobile phase for 10 min. α-tocotrienol was eluted at 6.7 min. For the simultaneous separation of α-tocotrienol and Compound 6 the following gradient elution was also used starting with H2O— MeOH—N(Et)3 (10:90:0.05, v/v/v) for 5 min, followed by isocratic MeOH—N(Et)3 (100:0.05, v/v) for another 10 min. The retention times were 4 and 14.1 for Compound 6 and α-tocotrienol, respectively. Standard curves for α-tocotrienol and Compound 6 in MeOH were prepared in the range of 0.4-50 μg/mL and 1-1000 μg/mL, respectively. Each compound was quantified using its calibration curve for compounds peak area versus its concentration.

The mark [3] stands for this setting: Mus musculus, Epithelial cell, 24 h.

pIC50: −log10 of the molar value.

In the case of `CC(C)=CCC/C(C)=C/CC/C(C)=C/CC[C@]1(C)CCc2c(C)c(OC(=O)c3ccc(C(=O)O)cc3C(=O)O)c(C)c(C)c2O1` [Compound 1, 4-(((R)-2,5,7,8-tetramethyl-2-((3E,7E)-4,8,12-trimethyltrideca-3,7,11-trienyl)chroman-6-yloxy)carbonyl)isophthalic acid], in series [1] (setting [3]), the pIC50 was 5.82. Besides, the inhibition at 5 µM in the series on MDA-MB-231 cells was roughly 50%.
`CC(C)=CCC/C(C)=C/CC/C(C)=C/CC[C@]1(C)CCc2cc(OC(=O)c3ccc(C(=O)O)cc3C(=O)O)c(C)c(C)c2O1` [Compound 2, 4-(((R)-2,7,8-trimethyl-2-((3E,7E)-4,8,12-trimethyltrideca-3,7,11-trienyl)chroman-6-yloxy)carbonyl)isophthalic acid] gave a pIC50 in series [1] (setting [3]) of 6.21.
`CC(C)=CCC/C(C)=C/CC/C(C)=C/CC[C@]1(C)CCc2c(C)c(OC(=O)c3cc(C(=O)O)ccc3C(=O)O)c(C)c(C)c2O1` [Compound 3, 2-(((R)-2,5,7,8-tetramethyl-2-((3E,7E)-4,8,12-trimethyltrideca-3,7,11-trienyl)chroman-6-yloxy)carbonyl)terephthalic acid] showed a pIC50 in series [1] (setting [3]) of 5.84. The inhibition at 5 µM with MDA-MB-231 cells is roughly 50%.
As for `CC(C)=CCC/C(C)=C/CC/C(C)=C/CC[C@]1(C)CCc2cc(OC(=O)c3cc(C(=O)O)ccc3C(=O)O)c(C)c(C)c2O1` [Compound 4, 2-(((R)-2,7,8-trimethyl-2-((3E,7E)-4,8,12-trimethyltrideca-3,7,11-trienyl)chroman-6-yloxy)carbonyl)terephthalic acid], in series [1] (setting [3]), the pIC50 was 5.84.
Turning to `CC(C)=CCC/C(C)=C/CC/C(C)=C/CC[C@]1(C)CCc2cc(OC(=O)c3cc(C(=O)O)ccc3C(=O)O)cc(C)c2O1` [Compound 5, 2-(((R)-2,8-dimethyl-2-((3E,7E)-4,8,12-trimethyltrideca-3,7,11-trienyl)chroman-6-yloxy)-carbonyl)terephthalic acid], in series [1] (setting [3]), the pIC50 is 5.82.
The molecule `CC(C)=CCC/C(C)=C/CC/C(C)=C/CC[C@]1(C)CCc2cc(OC(=O)/C=C\C(=O)O)c(C)c(C)c2O1` [Compound 7, (Z)-4-oxo-4-((R)-2,7,8-trimethyl-2-((3E,7E)-4,8,12-trimethyltrideca-3,7,11-trienyl)-chroman-6-yloxy)but-2-enoic acid] gave a pIC50 in series [1] (setting [3]) of 5.64. This pIC50 and that of the molecule before are within 0.2 log units of each other.
Take `CC(C)=CCC/C(C)=C/CC/C(C)=C/CC[C@]1(C)CCc2cc(OC(=O)/C=C\C(=O)O)cc(C)c2O1` [Compound 8, (Z)-4-((R)-2,8-dimethyl-2-((3E,7E)-4,8,12-trimethyltrideca-3,7,11-trienyl)chroman-6-yloxy)-4-oxobut-2-enoic acid]: the pIC50 in series [1] (setting [3]) was 6.07; in series [1] it was 6.06.
`CC(C)=CCC/C(C)=C/CC/C(C)=C/CC[C@]1(C)CCc2cc(OC(=O)CC(C)CC(=O)O)c(C)c(C)c2O1` (stereo partly drawn) [Compound 9, 3-Methyl-5-oxo-5-((R)-2,7,8-trimethyl-2-((3E,7E)-4,8,12-trimethyltrideca-3,7,11-trienyl)chroman-6-yloxy)pentanoic acid]: the antiproliferative activity result in series [1] was “inactive”. In addition, the pIC50 in series [1] (setting [3]) is 4.72.
As for `CC(C)=CCC/C(C)=C/CC/C(C)=C/CC[C@]1(C)CCc2cc(OC(=O)c3ccccc3)c(C)c(C)c2O1` [Compound 10, (R)-2,7,8-trimethyl-2-((3E,7E)-4,8,12-trimethyltrideca-3,7,11-trienyl)chroman-6-yl benzoate], in series [1], the antiproliferative activity entry was “inactive”. Besides, the pIC50 in series [1] (setting [3]) is 5.18. Further, the inhibition at 5 µM with MDA-MB-231 cells was roughly 50%.
`CC(=O)Oc1cc(C(=O)Oc2cc3c(c(C)c2C)O[C@](C)(CC/C=C(\C)CC/C=C(\C)CCC=C(C)C)CC3)cc(OC(C)=O)c1OC(C)=O` [Compound 11, 5-(((R)-2,7,8-trimethyl-2-((3E,7E)-4,8,12-trimethyltrideca-3,7,11-trienyl)chroman-6-yloxy)carbonyl)benzene-1,2,3-triyl triacetate] showed a pIC50 in series [1] (setting [3]) of 5.76.
Turning to `CC(=O)Oc1ccc(/C=C/C(=O)Oc2cc3c(c(C)c2C)O[C@](C)(CC/C=C(\C)CC/C=C(\C)CCC=C(C)C)CC3)cc1OC(C)=O` [Compound 12, 4-((E)-3-oxo-3-((R)-2,7,8-trimethyl-2-((3E,7E)-4,8,12-trimethyltrideca-3,7,11-trienyl)chroman-6-yloxy)prop-1-enyl)-1,2-phenylene diacetate], the antiproliferative activity result in series [1] was “inactive”. The molecule further had a pIC50 in series [1] (setting [3]) of less than 4.40.
For `CC(C)=CCC/C(C)=C/CC/C(C)=C/CC[C@]1(C)CCc2c(C)c(O)c(C)c(C)c2O1` [α-tocotrienol], in series [2], the “stability in phosphate buffer (in words)” value is recorded as “highly unstable” and the “start of decomposition after dissolution” value is given as 1 h. In series [2] (over 24 h), the “chemical stability relative to the zero time concentration” value was “completely undetectable”.

As a reminder, the pIC50 is the IC50 on a negative log10 scale, so that one unit is a factor of ten. High values mean a small IC50, low ones a large IC50. In general, inhibition refers to the relative decrease from the control value, in per cent.
